Reference: patent US9629851B2, “ROCK in combination with MAPK pathway” (Stichting Het Nederlands Kanker Instituut—Antoni van …, priority 2013, dated 2017)

Legend:
[1] = tested on: NRAS mutant melanoma cell lines; test: short-term viability assay (CellTiter-Blue, 3 days); type: cell-based, human; details: treatment-naïve NRAS mutant melanoma cell lines; ROCK inhibitor added to MAPK/ERK pathway inhibitor
Protocol: FIG. 1A: NRAS mutant melanoma cell lines are sensitive to combinations of ROCK and MEK or ERK inhibitors; Cells were treated with a dilution series of ROCK inhibitor (left panel), MEK inhibitor (middle panel) or ERK inhibitor (right panel) either alone or in combination with MEK/ERK/ROCK inhibitor as indicated. After 3 days total cell numbers were determined with a Cell Titer-Blue assay. The y-axis represents the percentage of living cells.
(§1) For short-term viability assays of inhibitors, cells were plated in 96-well format and treated on the next day with a dilution range of one inhibitor with or without a second inhibitor with a concentration as mentioned in the figure. After 3 days, cells were incubated with CellTiter-Blue (Promega) and fluorescence was measured with a TECAN Infinite M200 microplate reader. For proliferation assays, equal cell numbers were plated on 6 well dishes. The next day, cells were treated with one or more inhibitors and refreshed with medium with inhibitors every 3-4 days. […]
To model inhibitor sensitivity of treatment-naïve NRAS mutant melanoma we made use of a panel of human metastatic melanoma cell lines carrying activating mutations in NRAS codon 61 (R, K, N), including cell lines available in the prior art. […] Presence of the NRAS mutation and absence of exon 15 BRAF mutations has been determined by conventional sequencing. […]

[2] = tested on: NRAS mutant melanoma cells SK-MEL-147; test: SK-MEL-147 xenograft in NOD/SCID mice; type: in vivo; details: GSK1120212 0.05 mg/kg or GSK269962A 10 mg/kg alone, oral gavage once daily
Protocol: Melanoma cells (5*10^5 SK-MEL-147) were subcutaneously injected into both flanks of NOD/SCID mice. Tumor sizes were measured with a caliper and tumor volume was calculated by the formula (a*b^2)/2 with ‘a’ being the longest diameter and ‘b’ the respective perpendicular diameter of the tumor. After the tumors reached a size of 20-100 mm3, mice received by oral gavage either vehicle, GSK1120212 (MEKi), (0.05 mg/kg), 10 mg/kg GSK269962A (ROCKi) or both drugs. N=10 for each group, except for ROCKi n=8. Error bars represent standard error of the mean (SEM).
Six to ten week old male NOD/SCID mice were subcutaneously injected with 5*10^5 cells into both flanks. After the tumors reached a size of 50-150 mm^3 mice were treated with 0.05 or 0.1 mg/kg MEK inhibitor (GSK1120212) and/or ROCK inhibitor (GSK266962A, 10 mg/kg). Both GSK1120212 and GSK269962A were applied by oral gavage (in 5% Tween80, 3.25% ethanol, DMSO for GSK1120212 and in 10% Tween80, 6.5% ethanol, 10% DMSO for GSK266962A). Tumors were measured twice a week with a caliper. Tumor volume was calculated by the formula (a*b2)/2, with ‘a’ being the longest diameter and b′ the respective perpendicular diameter of the tumor. Mice were euthanized by CO2 when tumors reached a volume of 1 cm3, according to a protocol approved by the Institutional Animal Experiment Ethics Committee. […]

[3] = tested on: NRAS mutant melanoma patients; details: cited from earlier work
[4] = tested on: BRAF mutant melanoma patients; details: cited from earlier work
MEK = details: cited from earlier work
[5] = tested on: ERK inhibitor resistant sublines of BLM; test: inhibitor sensitivity of resistant sublines versus parental line; type: cell-based, human; details: sublines grown in 1 μM SCH772984
Protocol: NRAS Mutation: Q61R BLM, SK-MEL-147. BRAF mutation: Mel 95.03, mel 888. All cell lines were cultured in Dulbecco's modified Eagle's Medium (DMEM, Gibco) supplemented with 9% fetal calf serum (Sigma) and 1% glutamine. To generate MEK and ERK inhibitor resistant sublines, cells were plated on 10 cm dishes. Medium containing 1 μM SCH772984 was added the next day and changed twice a week. After 2 weeks colonies were picked and expanded in the presence of the inhibitor. In addition, multiple colonies per 10 cm dish were trypsinized and expanded to obtain resistant pools.
as §1, with “days. Cells were stained with crystal violet after 7-11 days of treatment.” for “days.”
We assessed sensitivity to a panel of other inhibitors including ROCK inhibitors but observed mainly slight differences.

c-Raf = c-Raf (Homo sapiens, UniProt P04049); details: B-Raf less than c-Raf; cited from earlier work
Sequence of c-Raf (P04049 whole entry): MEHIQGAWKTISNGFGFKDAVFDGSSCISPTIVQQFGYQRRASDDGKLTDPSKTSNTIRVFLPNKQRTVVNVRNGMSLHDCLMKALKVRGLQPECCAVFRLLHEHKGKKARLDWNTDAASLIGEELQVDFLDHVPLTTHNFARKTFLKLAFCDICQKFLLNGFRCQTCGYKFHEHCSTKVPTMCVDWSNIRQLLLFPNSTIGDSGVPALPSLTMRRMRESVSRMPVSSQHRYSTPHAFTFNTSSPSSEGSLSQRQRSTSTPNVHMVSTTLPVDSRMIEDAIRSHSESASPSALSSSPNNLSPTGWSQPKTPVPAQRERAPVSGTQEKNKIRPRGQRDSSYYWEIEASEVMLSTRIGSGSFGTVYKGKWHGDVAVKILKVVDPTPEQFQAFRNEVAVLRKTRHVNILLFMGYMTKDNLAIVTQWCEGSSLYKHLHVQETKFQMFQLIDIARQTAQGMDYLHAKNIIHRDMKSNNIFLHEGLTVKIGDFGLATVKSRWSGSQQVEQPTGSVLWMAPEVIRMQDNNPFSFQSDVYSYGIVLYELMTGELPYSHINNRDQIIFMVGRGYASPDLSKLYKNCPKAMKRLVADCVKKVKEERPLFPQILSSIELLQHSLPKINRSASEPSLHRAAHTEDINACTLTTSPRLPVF

O=S(=O)(c1cccc2cnccc12)N1CCCNCC1 [Fasudil]
sensitization to MEK or ERK inhibitors [1]: sensitizers

CCn1c(-c2nonc2N)nc2cnc(Oc3cccc(NC(=O)c4ccc(OCCN5CCOCC5)cc4)c3)cc21 [GSK269962A]
sensitization to MEK or ERK inhibitors [1]: sensitizers
effect as single agent [2]: only a weak effect as single agents

Cn1cnc2c(F)c(Nc3ccc(Br)cc3F)c(C(=O)NOCCO)cc21 [MEK162]
median time to develop resistance [3]: 3.7 months
median time to develop resistance [4]: 3.3 months

O=C(NOCC1CC1)c1ccc(F)c(F)c1Nc1ccc(I)cc1Cl [PDI 84352]
specificity and potency compared to other known MEK inhibitors (MEK): high degree of specificity and potency

Oc1cccc(-c2nc(N3CCOCC3)c3oc4ncccc4c3n2)c1 [PI-103]
sensitivity of resistant sublines compared with parental line [5]: as sensitive to the dual PI3K/mTOR inhibitor PI-103 as the parental line

Cc1ccc(NC(=O)c2cccc(N(C)C)c2)cc1NC(=O)c1ccc(O)cc1 [ZM 336372]
potency for B-Raf relative to c-Raf (c-Raf): c-Raf, (B-Raf 10fold
